The assay deals with Sprague Dawley (SD) rat. Type of assay: in vivo. The method, then:
The general anesthetic activity of Propofol novel drug compound 1004 was evaluated in rats. All animal experiments were performed as per CPCSEA guidelines. The studies were carried out in Sprague Dawley (SD) rat in the weight range […] by intravenous tail vein dosing over a period of 10 seconds. The formulations of the compound 1004 for IV dosing in rats were prepared in pre-mix PEG400 and saline. Formulations of 1004 equivalent to 5 mpk (14 mpk of compd. 1004) and 7.5 mpk (equivalent to 21 mpk of compound 1004) of parent drug Propofol were prepared in 15% PEG400 and 85% normal saline. The monitoring of distinguishable levels of sedation was started during the dosing period and continued till animals regained consciousness. The onset, duration of sleep and recovery time was recorded.

Like-named read-outs stand apart in the source and are kept apart here.

The text below walks through data of US9556156B2, “Compounds, their synthesis and their uses” (priority 2012, dated 2017).

In the case of `CNC(=O)c1ccc[n+](COC(=O)Oc2c(C(C)C)cccc2C(C)C)c1.[I-]` [Compound 1004, 1-(((2,6-diisopropylphenoxy)carbonyloxy)methyl)-3-(methylcarbamoyl)pyridinium iodide], the Recovery entry (SD rat, IV tail vein, Propofol Eq. 7.5 mpk, vehicle 15% PEG400, 85% NS) was “Complete”. In addition, where the note is “onset of GA, SD rat, IV tail vein over 10 seconds, Propofol Eq. 7.5 mpk, vehicle 15% PEG400, 85% NS”, the “General Anesthesia (GA)” value is given as “After 1 min”.
Take `CC(C)c1cccc(C(C)C)c1O` [Propofol, 2,6-diisopropylphenol]: for the setting “rat, in vivo”, the “General Anesthesia (GA)” value was “No GA” and the Recovery result is “Complete”.
